Consider 5 compounds from PMC10294644 (Cell, 2020).

Entries after “also recorded” stand apart in the source; their conditions may differ.

In data set [1] the target is CSK (Homo sapiens, UniProt P41240). As to the kind of experiment: Global quantitative proteomics. It counts as cell-based. The conditions noted are these: MOLT-4 cells, 1 μM, 5 h.
The target of data set [2] is CDK17 (Homo sapiens, UniProt Q00537). As to the kind of experiment: Global quantitative proteomics. The conditions noted are these: MOLT-4 cells, 1 μM, 5 h, relative protein abundance. It counts as cell-based.
Sequence of CDK17 (Q00537 whole entry): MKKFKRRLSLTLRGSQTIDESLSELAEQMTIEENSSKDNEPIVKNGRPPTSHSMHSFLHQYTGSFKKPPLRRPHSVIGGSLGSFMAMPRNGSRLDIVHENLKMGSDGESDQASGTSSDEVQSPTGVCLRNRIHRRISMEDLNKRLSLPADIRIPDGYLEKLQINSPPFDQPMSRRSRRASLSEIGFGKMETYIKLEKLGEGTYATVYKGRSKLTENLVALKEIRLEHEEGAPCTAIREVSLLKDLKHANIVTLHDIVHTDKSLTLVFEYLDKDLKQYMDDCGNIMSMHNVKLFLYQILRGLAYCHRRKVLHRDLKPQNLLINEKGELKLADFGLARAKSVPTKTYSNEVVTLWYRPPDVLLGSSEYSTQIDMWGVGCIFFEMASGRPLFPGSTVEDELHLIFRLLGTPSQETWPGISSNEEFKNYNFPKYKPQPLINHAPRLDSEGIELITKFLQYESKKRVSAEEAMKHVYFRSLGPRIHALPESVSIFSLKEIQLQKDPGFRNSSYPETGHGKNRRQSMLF
The target in data set [3] is LIMK2 (Homo sapiens, UniProt P53671). Kind of data set: Global quantitative proteomics. It is filed as cell-based. The conditions noted are these: MOLT-4 cells, 1 μM, 5 h, relative protein abundance.
In data set [4] the target is T1, GCK (Homo sapiens, UniProt Q12851).
T1 sequence (Q12851 1-820): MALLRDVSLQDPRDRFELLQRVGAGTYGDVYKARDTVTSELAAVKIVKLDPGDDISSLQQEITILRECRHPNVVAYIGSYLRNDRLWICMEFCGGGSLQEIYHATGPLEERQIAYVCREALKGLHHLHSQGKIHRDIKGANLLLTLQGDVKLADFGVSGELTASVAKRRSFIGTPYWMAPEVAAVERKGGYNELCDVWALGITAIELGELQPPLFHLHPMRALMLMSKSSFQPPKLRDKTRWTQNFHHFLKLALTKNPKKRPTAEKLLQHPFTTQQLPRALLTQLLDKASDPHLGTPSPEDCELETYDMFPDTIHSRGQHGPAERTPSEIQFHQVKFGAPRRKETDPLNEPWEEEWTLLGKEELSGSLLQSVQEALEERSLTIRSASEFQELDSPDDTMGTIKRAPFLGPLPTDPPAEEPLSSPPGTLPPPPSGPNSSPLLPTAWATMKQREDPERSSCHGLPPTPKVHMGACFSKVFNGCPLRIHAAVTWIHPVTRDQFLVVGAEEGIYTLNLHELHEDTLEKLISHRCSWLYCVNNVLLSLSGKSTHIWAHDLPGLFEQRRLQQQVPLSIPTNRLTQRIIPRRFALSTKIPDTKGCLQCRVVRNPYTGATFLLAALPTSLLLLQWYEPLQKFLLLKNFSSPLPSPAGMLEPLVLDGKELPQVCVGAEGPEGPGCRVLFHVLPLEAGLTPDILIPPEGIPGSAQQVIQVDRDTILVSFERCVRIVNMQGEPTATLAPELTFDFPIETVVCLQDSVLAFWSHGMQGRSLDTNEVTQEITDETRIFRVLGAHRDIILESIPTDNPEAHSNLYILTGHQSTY
As to the kind of experiment: Global quantitative proteomics, degradation of GCK. It counts as cell-based. The conditions noted are these: 1 μM, 5 h.

For data set [5], the target named is T1, GCK. Kind of data set: KiNativ live cell profiling. It counts as cell-based. Particulars: CRBN−/− MOLT-4 cells, 1 μM, 5 h.
Data set [6] concerns the target YES1 (Homo sapiens, UniProt P07947). It is filed as cell-based. Particulars: HEK293T cells, 1 μM, 5 h.
The target of data set [7] is IRAK1 (Homo sapiens, UniProt P51617). It counts as cell-based. The conditions noted are these: HEK293T cells, 1 μM, 5 h.
Sequence of IRAK1 (P51617 whole entry): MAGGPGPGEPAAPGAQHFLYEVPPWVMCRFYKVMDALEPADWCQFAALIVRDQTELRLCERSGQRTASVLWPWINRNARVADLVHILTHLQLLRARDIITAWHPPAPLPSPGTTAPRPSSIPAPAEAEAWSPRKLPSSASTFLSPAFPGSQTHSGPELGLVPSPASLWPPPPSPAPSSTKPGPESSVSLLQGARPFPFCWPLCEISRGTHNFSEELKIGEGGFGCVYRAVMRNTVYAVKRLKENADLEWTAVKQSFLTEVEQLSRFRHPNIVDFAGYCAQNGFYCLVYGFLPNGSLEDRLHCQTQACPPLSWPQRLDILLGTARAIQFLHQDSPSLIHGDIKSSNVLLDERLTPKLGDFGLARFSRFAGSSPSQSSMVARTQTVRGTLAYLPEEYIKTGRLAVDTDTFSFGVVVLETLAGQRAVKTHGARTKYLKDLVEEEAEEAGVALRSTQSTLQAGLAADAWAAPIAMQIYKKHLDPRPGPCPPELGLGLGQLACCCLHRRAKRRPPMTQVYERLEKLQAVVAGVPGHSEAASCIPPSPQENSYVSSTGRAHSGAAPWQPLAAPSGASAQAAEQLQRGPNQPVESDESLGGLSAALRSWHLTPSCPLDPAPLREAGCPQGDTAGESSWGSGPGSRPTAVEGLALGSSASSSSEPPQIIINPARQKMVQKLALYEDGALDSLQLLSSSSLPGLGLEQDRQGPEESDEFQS
Sequence of IRAK1 (Q96SW2 whole entry partner): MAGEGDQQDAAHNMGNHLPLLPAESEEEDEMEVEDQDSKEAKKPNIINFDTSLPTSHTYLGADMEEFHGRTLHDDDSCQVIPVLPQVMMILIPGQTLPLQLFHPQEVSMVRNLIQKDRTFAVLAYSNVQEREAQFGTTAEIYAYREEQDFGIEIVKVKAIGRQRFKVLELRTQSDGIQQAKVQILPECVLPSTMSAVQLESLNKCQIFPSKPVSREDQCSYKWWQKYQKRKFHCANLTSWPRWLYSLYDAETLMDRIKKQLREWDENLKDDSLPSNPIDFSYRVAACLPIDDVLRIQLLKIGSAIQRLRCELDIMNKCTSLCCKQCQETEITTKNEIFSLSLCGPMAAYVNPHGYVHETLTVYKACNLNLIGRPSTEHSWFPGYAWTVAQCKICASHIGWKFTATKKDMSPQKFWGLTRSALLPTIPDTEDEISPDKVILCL
Sequence of IRAK1 (Q16531 2-1140 partner limits assumed): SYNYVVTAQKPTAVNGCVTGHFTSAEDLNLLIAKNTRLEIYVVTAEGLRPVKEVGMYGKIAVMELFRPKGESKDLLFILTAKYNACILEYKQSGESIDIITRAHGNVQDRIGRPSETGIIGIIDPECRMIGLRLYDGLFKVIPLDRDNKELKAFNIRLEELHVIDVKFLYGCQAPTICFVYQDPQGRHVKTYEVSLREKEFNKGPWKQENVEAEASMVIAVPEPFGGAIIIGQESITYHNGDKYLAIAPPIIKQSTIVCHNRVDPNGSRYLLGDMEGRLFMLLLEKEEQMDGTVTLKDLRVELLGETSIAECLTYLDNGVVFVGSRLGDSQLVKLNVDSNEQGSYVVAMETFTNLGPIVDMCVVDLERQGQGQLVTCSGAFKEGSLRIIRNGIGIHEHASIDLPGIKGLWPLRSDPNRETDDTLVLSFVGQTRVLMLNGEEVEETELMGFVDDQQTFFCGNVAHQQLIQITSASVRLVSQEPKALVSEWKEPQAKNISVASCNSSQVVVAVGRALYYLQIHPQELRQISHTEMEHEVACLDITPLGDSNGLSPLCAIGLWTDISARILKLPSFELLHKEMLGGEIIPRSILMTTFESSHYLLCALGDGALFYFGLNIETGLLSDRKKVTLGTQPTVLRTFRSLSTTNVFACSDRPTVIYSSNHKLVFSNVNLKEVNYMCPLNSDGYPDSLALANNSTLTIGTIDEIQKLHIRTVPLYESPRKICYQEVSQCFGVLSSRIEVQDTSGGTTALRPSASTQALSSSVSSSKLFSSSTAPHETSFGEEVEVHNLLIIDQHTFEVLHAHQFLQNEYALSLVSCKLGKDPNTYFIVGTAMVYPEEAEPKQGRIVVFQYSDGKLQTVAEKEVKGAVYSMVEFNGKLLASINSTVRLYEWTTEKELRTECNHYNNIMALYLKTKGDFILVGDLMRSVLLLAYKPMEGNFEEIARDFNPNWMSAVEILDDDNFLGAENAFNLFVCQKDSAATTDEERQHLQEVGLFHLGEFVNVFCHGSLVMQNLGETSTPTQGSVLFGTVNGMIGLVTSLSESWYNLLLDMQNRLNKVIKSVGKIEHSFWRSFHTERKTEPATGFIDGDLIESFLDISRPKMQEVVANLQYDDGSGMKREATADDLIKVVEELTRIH
The target in data set [8] is LYN (Homo sapiens, UniProt P07948). It is filed as cell-based. The conditions noted are these: HEK293T cells, 1 μM, 5 h.
Sequence of LYN (P07948 2-512 limits assumed): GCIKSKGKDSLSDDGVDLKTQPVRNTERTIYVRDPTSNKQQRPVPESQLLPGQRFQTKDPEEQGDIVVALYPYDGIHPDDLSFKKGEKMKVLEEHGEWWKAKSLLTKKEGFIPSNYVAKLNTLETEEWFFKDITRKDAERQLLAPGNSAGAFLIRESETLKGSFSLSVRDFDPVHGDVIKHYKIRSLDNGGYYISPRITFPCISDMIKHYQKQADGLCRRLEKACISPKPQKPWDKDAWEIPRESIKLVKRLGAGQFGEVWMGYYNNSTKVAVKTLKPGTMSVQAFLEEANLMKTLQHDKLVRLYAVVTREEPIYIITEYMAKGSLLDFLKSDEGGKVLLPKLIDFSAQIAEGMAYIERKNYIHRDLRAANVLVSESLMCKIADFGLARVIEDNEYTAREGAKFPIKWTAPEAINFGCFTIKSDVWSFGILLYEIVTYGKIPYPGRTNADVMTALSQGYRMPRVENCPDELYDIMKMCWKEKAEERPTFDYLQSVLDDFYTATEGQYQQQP
Sequence of LYN (Q96SW2 whole entry partner): as the sequence (Q96SW2 whole entry partner) above
Sequence of LYN (Q16531 2-1140 partner limits assumed): as the sequence (Q16531 2-1140 partner limits assumed) above
For data set [9], the target named is BUB1 (Homo sapiens, UniProt O43683). It counts as cell-based. Particulars: MOLT-4 and MM.1S cell lines.
In data set [10] the target is FLAG-tagged CRBN (Homo sapiens, UniProt Q96SW2). Kind of data set: FLAG-CRBN AP-MS, proteins enriched with CRBN. It is filed as cell-based. The conditions noted are these: HEK293T cells, 1 μM, 5 h, relative to SB1-G-187 and WH-10417–099.
Sequence of FLAG-tagged CRBN (Q96SW2 whole entry): as the sequence (Q96SW2 whole entry partner) above
Sequence of FLAG-tagged CRBN (Q16531 2-1140 partner limits assumed): as the sequence (Q16531 2-1140 partner limits assumed) above
Data set [11] has as its system MOLT-4 cells. Kind of data set: Time-course RNA-sequencing. It is filed as cell-based, human. The conditions noted are these: for transcript levels: 1 μM.
Data set [12] has as its target T2, AURKA (Aurora A) (Homo sapiens, UniProt O14965).
T2 sequence (O14965 1-403): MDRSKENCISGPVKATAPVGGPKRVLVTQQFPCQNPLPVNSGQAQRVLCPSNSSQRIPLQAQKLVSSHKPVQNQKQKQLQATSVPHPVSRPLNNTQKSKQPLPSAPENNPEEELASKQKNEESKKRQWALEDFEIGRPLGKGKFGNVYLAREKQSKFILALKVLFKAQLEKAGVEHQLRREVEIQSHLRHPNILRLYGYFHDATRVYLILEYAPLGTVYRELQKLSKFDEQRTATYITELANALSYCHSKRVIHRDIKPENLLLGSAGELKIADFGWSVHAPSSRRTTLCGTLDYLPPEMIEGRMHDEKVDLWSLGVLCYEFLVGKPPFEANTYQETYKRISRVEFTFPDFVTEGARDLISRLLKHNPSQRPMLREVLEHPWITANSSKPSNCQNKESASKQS
As to the kind of experiment: Global quantitative proteomics and immunoblot, degradation of AURKA. It counts as cell-based. Particulars: MOLT-4 cells 1 μM 5 h proteomics; validated by immunoblotting in MM.1S cells.

Data set [13] has as its system MM.1S multiple myeloma cell line. As to the kind of experiment: CellTiter-Glo viability assay. It counts as cell-based, human. Particulars: MM.1S cells, 72 h, compared with parental inhibitor alisertib.

Sequence of YES1 (P07947 2-543 limits assumed): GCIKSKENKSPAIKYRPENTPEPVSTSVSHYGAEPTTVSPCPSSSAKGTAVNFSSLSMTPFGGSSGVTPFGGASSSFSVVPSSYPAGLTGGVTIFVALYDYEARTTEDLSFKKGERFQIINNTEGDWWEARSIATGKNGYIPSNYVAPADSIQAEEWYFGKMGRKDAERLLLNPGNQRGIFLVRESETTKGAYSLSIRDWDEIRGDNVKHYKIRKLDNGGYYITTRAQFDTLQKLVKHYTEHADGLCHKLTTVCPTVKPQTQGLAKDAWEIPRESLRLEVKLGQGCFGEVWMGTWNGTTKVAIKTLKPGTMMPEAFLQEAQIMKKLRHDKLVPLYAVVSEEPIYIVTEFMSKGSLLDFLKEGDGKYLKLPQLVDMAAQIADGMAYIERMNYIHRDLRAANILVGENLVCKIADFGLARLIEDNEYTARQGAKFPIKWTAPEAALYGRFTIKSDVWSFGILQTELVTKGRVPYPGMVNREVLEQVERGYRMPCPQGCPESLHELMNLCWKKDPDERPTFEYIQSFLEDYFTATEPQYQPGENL
Sequence of YES1 (Q96SW2 whole entry partner): as the sequence (Q96SW2 whole entry partner) above
Sequence of YES1 (Q16531 2-1140 partner limits assumed): as the sequence (Q16531 2-1140 partner limits assumed) above
Sequence of CSK (P41240 whole entry): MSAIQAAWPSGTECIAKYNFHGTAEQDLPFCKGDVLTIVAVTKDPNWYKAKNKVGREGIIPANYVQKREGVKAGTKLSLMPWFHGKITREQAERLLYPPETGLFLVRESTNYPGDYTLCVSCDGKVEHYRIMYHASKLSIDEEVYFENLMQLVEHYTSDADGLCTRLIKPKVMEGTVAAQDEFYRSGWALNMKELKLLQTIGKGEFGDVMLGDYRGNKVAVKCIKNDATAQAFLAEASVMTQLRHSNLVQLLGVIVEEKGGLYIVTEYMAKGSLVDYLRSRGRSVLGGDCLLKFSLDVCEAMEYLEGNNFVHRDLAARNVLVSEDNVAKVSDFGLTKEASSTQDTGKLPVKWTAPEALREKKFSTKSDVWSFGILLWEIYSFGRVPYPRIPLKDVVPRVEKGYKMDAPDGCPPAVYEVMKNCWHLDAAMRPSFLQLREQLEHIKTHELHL

Take `Cc1nc(Nc2ncc(C(=O)Nc3c(C)cccc3Cl)s2)cc(N2CCN(CC(=O)NCCCCNC(=O)COc3cccc4c3C(=O)N(C3CCC(=O)NC3=O)C4=O)CC2)n1` (stereo not shown) [DB-3-291]: the “selectivity among CSK-degrading compounds” value in data set [1] was “greatest selectivity”. The “degradation of CSK” value in [1] (compared with the 15 library compounds that target CSK) is on record as “strongest degradation”.
For the compound `Cc1ncsc1-c1ccc([C@H](C)NC(=O)[C@@H]2C[C@@H](O)CN2C(=O)[C@@H](NC(=O)CCOCCOCCNc2nccc(-c3sc(C(C)(C)C)nc3-c3cccc(NS(=O)(=O)c4c(F)cccc4F)c3F)n2)C(C)(C)C)cc1` [DD-03–156], the “degradation of CDK17” value in [2] is “potent and selective degradation; also recorded: exquisite”. Besides, in [3], the “degradation of LIMK2” value was “potent and selective degradation”.
As for `Cc1ccc(C(=O)Nc2ccc(CN3CCN(CCCOCCOCCOCCNC(=O)COc4cccc5c4C(=O)N(C4CCC(=O)NC4=O)C5=O)CC3)c(C(F)(F)F)c2)cc1C#Cc1cnc2cccnn12` (stereo not shown) [SB1-G-187], the “degradation of GCK” value in [4] is given as “degraded”. Also, the “GCK engagement, inhibition of probe binding” value in data set [5] worked out at 94 %I. Also, the “YES1 complex formation with CRBN and degradation” value in data set [6] was “complex formation and degradation”. In addition, in data set [7], the “IRAK1 complex formation with CRBN and degradation” value is “complex formation and degradation”. The “LYN complex formation with CRBN and degradation” value in [8] was “complex formation and degradation”.
As for `CC(C)S(=O)(=O)c1ccccc1Nc1nc(Nc2ccc(N3CCN(CCOCCNC(=O)CNc4cccc5c4C(=O)N(C4CCC(=O)NC4=O)C5=O)CC3)cc2)ncc1Cl` (stereo not shown) [SK-3–91], in data set [4], the “degradation of GCK” value is given as “not degraded”. The “GCK engagement, inhibition of probe binding” value in data set [5] was 50 %I. The “YES1 complex formation with CRBN and degradation” value in [6] is given as “complex formation does not predict degradation”. Besides, the “degradation of BUB1” value in [9] is recorded as “degraded”. The “enriched proteins in the CRBN AP-MS” value in data set [10] is reported as “fewer enriched proteins”. Further, the transcript levels entry in data set [11] (8 and 12 h time points) is given as “complete transcriptional collapse”; in [11] (up until the 4 h time point) it was “largely unchanged”. For the same compound, in [11] (4 h treatment), the “transcriptional changes of CAMKK2, DNAPK, IKKe and JAK2” value was “no upregulation”.
As for `COc1cc(Nc2ncc3c(n2)-c2ccc(Cl)cc2C(c2c(F)cccc2OC)=NC3)ccc1C(=O)NCCCOCCOCCOCCCNC(=O)COc1cccc2c1C(=O)N(C1CCC(=O)NC1=O)C2=O` (stereo not shown) [dAURK-4], the “degradation of AURKA” value in data set [12] is “potent and selective degradation”. Besides, in data set [13], the antiproliferative effects entry is given as “superior antiproliferative effects”.
